Assay results taken from PubChem BioAssay (NCI).
“And” between values parts separate entries of the source, which are not always exact repeats. Equal values may be shown once.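 Growth conditions: 96-well plates. Treatment: test compound, 48 hours, 5 concentrations. Analysis: linear interpolation between bracketing concentrations; unreached endpoints set to highest concentration. The concentration for 50% growth inhibition is given as GI50. TGI: concentration producing complete growth inhibition.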

Experiments:
Assay in all cases: DTP human tumour cell line panel, 48 h
ACHN renal = tested on: ACHN renal
CCRF-CEM leukemia = tested on: CCRF-CEM leukemia
DMS 273 small cell lung = tested on: DMS 273 small cell lung
M19-MEL melanoma = tested on: M19-MEL melanoma
MOLT-4 leukemia = tested on: MOLT-4 leukemia
NCI-H460 lung = tested on: NCI-H460 lung
OVCAR-4 ovarian = tested on: OVCAR-4 ovarian
SNB-75 CNS = tested on: SNB-75 CNS
TK-10 renal = tested on: TK-10 renal
DU-145 prostate = tested on: DU-145 prostate

Row | Compound | TGI (ACHN renal) [µM] | TGI (CCRF-CEM leukemia) | TGI (DMS 273 small cell lung) [µM] | TGI (M19-MEL melanoma) [µM] | TGI (MOLT-4 leukemia) | TGI (NCI-H460 lung) [µM] | TGI (OVCAR-4 ovarian) [µM] | TGI (SNB-75 CNS) [µM] | TGI (TK-10 renal) [µM] | TGI (DU-145 prostate) [µM] | GI50 (M19-MEL melanoma) [µM] | GI50 (NCI-H460 lung) [µM] | GI50 (OVCAR-4 ovarian) [µM] | GI50 (SNB-75 CNS) [µM] | GI50 (TK-10 renal) [µM] | GI50 (ACHN renal) [µM] | GI50 (CCRF-CEM leukemia) [µM] | GI50 (DU-145 prostate) [µM] | GI50 (MOLT-4 leukemia) [µM]
1 | CC(=O)OCC(=O)[C@@]1(O)CC[C@H]2[C@@H]3C[C@H](C)C4=CC(=O)C=C[C@]4(C)[C@@]3(F)[C@@H](O)C[C@@]21C | > 100 | > 100 µM | > 100 | > 100 | > 100 µM | > 100 | > 100 | > 100 | > 100 | – | – | – | – | – | – | – | – | – | –
2 | OC(c1ccccc1Br)(c1ccccc1Br)C(F)(F)F | 38.3 | – | 40.7 | 74 | 31.6 µM | > 100 | > 100 | 85.2 | > 100 | – | – | – | – | – | – | – | – | – | –
3 | O=C(CCCC(=O)Nc1ccc(Cl)cc1Cl)CC(=O)c1ccc2ccccc2c1 | > 100 | > 100 µM | > 100 | > 100 | > 100 µM | > 100 | > 100 | – | > 100 | – | – | – | – | – | – | – | – | – | –
4 | N#CC1CC(c2ccccc2)Nc2cc(Cl)ccc2N1 (stereo not drawn) | > 100 | > 100 µM | > 100 | > 100 | > 100 µM | > 100 | > 100 | > 100 | > 100 | – | – | – | – | – | – | – | – | – | –
5 | c1ccc(C(c2ccccc2)c2ccccn2)cc1 | > 100 | > 100 µM | > 100 | > 100 | – | > 100 | > 100 | > 100 | > 100 | – | – | – | – | – | – | – | – | – | –
6 | O=C1NC(=O)C2C(=O)NC(=O)C1C2Cc1ccco1 (stereo not drawn) | > 100 | > 100 µM | > 100 | > 100 | > 100 µM | > 100 | > 100 | > 100 | > 100 | – | – | – | – | – | – | – | – | – | –
7 | Cn1c(=O)c2nc3sc4c(n3c2n(C)c1=O)C(=O)c1ccccc1C4=O | > 54.7 | > 50.3 µM | > 100 | > 100 | 38.3 µM | > 95.4 | > 81.4 | 72.1 | > 100 | > 100 | – | – | – | – | – | – | – | – | –
8 | CCOC(=O)C1(C)CCC(C(C(=O)O)C(=O)O)CC1=O (stereo not drawn) | > 100 | > 100 µM | > 100 | > 100 | > 100 µM | > 100 | > 100 | > 100 | > 100 | – | – | – | – | – | – | – | – | – | –
9 | O=NN(CCCl)C(=O)NC1CCC(CC(=O)O)CC1 (stereo not drawn) | > 100 | > 100 µM and 62.2 µM | > 100 | > 100 | > 100 µM and 63.2 µM | > 100 | > 100 | > 100 | > 100 | – | – | – | – | – | – | – | – | – | –
10 | COC(=O)C1=C(C(=O)OC)C2(c3ccccc3)OC1(c1ccccc1)c1cc3ccccc3cc12 | 3.07 | 4.55 µM | 3.7 | 4.22 | 3.64 µM | 11.9 | 3.5 | 1.99 | 3.56 | – | – | – | – | – | – | – | – | – | –
11 | CC(=O)[CH-]C(=O)c1ccccc1.[C-]#[O+].[C-]#[O+].[Ir] | – | – | – | > 100 | – | > 10 | > 100 | > 100 | > 100 | – | > 100 | > 10 | > 100 | > 100 | > 100 | – | – | – | –
12 | N#CC(C#N)=C/C=C(\Sc1ccc(Cl)cc1)c1ccc(F)cc1 | > 27.7 | > 100 µM | – | – | – | > 100 | 60.3 | 31.7 | 3.61 | > 33.6 | – | 2.31 | 19.5 | 16.6 | 0.857 | 1.52 | 0.0177 | 0.525 | 0.281
